Reference: patent US12349673B2, “Emulsifiable concentrates” (priority 2018, dated 2025)

Experiments:
Type in all cases: physicochemical
[1] = Method A: solubility of active ingredient in solvent by NMR spectroscopy of a saturated solution; settings: for Active Ingredient Solubility: 2,4-D Acid: 2,4-dichlorophenoxyacetic acid dissolved in the named solvent; for Active Ingredient Solubility: MCPA: 2-methyl-4-chlorophenoxyacetic acid dissolved in the named solvent; for Active Ingredient Solubility: NBPT: N-(n-butyl)thiophosphoric triamide dissolved in the named solvent; for Active Ingredient Solubility: Bifenthrin: bifenthrin dissolved in the named solvent; for Active Ingredient Solubility: Dicamba Acid: dicamba acid dissolved in the named solvent; for Active Ingredient Solubility: Nitrapyrin: nitrapyrin dissolved in the named solvent; for Active Ingredient Solubility: Tebuconazole: tebuconazole dissolved in the named solvent
Procedure: (§1) The solubilities of active ingredients in the Ether Ketone Solvents and Comparative Solvents are determined on a saturated solution of a given active ingredient in a given solvent using NMR spectroscopy (Method A, as described below), or by visual evaluation of a concentration ladder of a given active ingredient in a given solvent (Method B, as described below).
Method A: Solubility Determination by NMR Spectroscopy
A saturated solution of a given active ingredient in a solvent is prepared by initially combining the active ingredient (0.8 g) and solvent (1.5 mL) in a vial and stirring vigorously for at least 24 hours. If a homogeneous solution is obtained, additional active ingredient is added until a significant amount of solid remains out of solution. The mixtures (˜0.25 mL) are then filtered with a PTFE syringe filter (0.45 μm) into an NMR tube that contained C6D6 (0.5 mL). The NMR tubes are capped and analyzed on Varian 400 NMR spectrometer equipped with an auto sampler. Proton NMR spectra are referenced to the residual proton peak in the deuterated solvent. Spectra used for quantitation are collected with a 180 second delay between pulses. Spectra are processed in MestReNova (version 11.0.4-18998) by baseline (Bernstein Polynomials) and phase correcting each spectrum followed by integration of all well-resolved solvent and active resonances. Active ingredient weight percentages are estimated by the following formula:
(§2) [formula] When possible, several well-resolved peaks are used for both solvent and active ingredient, and averaged to provide an estimation of variability in the measurement. Method B: Solubility Determination by Visual Evaluation

[2] = Solubility of Ether Ketone Solvent in water (dropwise addition, weighing); settings: lab temperature 30° C.
Procedure: The solubilities of certain of the Ether Ketone Solvents in water are determined by adding water (˜10 to 50 grams) to a tared vial equipped with a stir bar. The weights of water are noted. The specified solvent is added dropwise using a 10 μL syringe until the mixture appeared to have solvent droplets suspended in the water. The mixture is weighed again and the weight percent solubility of the Ether Ketone Solvent in water is calculated.
(§3) The solubilities of water in certain of the Ether Ketone Solvents are also evaluated. A vial is charged with 5 grams of the specified solvent, and 3 Å activated molecular sieves (˜300 mg) are added. The vial is capped and the solvent left to dry for several days. The mixtures are filtered using a 0.2 μm syringe filter into a tared 20 mL vial and the weights are noted. Water is then added using a 10 μL syringe until the mixture appeared to have water droplets on the bottom of the vial. The mixture is weighed again and the weight percent solubility of water in the Ether Ketone solvent is calculated. The temperature in the lab is 30° C. at the time of the water solubility measurements.

[3] = Solubility of water in Ether Ketone Solvent (dropwise addition, weighing); settings: water in dried solvent; lab temperature 30° C.
Procedure: as §3

[4] = Method B: solubility of active ingredient in solvent by visual evaluation of a concentration ladder; settings: Method B (visual, 24 hours, 21° C.); for Active Ingredient Solubility: 2,4-D Acid: 2,4-dichlorophenoxyacetic acid dissolved in the named solvent; for Active Ingredient Solubility: MCPA: 2-methyl-4-chlorophenoxyacetic acid dissolved in the named solvent; for Active Ingredient Solubility: NBPT: N-(n-butyl)thiophosphoric triamide dissolved in the named solvent; for Active Ingredient Solubility: Bifenthrin: bifenthrin dissolved in the named solvent; for Active Ingredient Solubility: Tebuconazole: tebuconazole dissolved in the named solvent
Procedure: as §1, §2
Four-milliliter (mL) vials are charged with active ingredient (10 to 50 wt %), a stir bar, and solvent (90 to 50 wt %). The vials are capped and taped to seal. The vials are secured in a vial rack and shaken on a laboratory shaker for 24 hours at ambient lab temperature of 21° C. and 51% humidity. After 24 hours each sample set is evaluated for solubility of solid.

Row | SMILES | Active Ingredient Solubility: 2,4-D Acid [1] [wt %] | Active Ingredient Solubility: MCPA [1] [wt %] | Active Ingredient Solubility: NBPT [1] [wt %] | Active Ingredient Solubility: Bifenthrin [1] [wt %] | Active Ingredient Solubility: Dicamba Acid [1] [wt %] | Active Ingredient Solubility: Nitrapyrin [1] [wt %] | Active Ingredient Solubility: Tebuconazole [1] [wt %] | Solubility In Water [2] [wt %] | Solubility Water In [3] [wt %] | Active Ingredient Solubility: 2,4-D Acid [4] [wt %] | Active Ingredient Solubility: MCPA [4] [wt %] | Active Ingredient Solubility: NBPT [4] [wt %] | Active Ingredient Solubility: Bifenthrin [4] | Active Ingredient Solubility: Tebuconazole [4] [wt %]
1 | CCCCCOCC(C)=O [PnPent Ketone, 1-Pentyloxy-2-propanone] | 17.3 | 22.9 | 24.2 | 40.2 | 49.1 | 49.0 | 16.7 |  |  |  |  |  |  | 
2 | CCCCOCC(CC)OCC(=O)CC (stereo not drawn) [DBnB Ketone, 1-((1-Butoxy-2-butanyl)oxy)-2-butanone] | 13.2 | 17.1 | 15.7 | 34.7 | 45.6 | 42.6 | 10.5 |  |  |  |  |  |  | 
3 | CCCCOCC(=O)CC [BnB Ketone, 1-Butoxy-2-butanone] | 15.6 | 21.6 | 21.0 | 42.6 | 48.9 | 55.0 | 16.9 | 0.43 | 0.11 |  |  |  |  | 
4 | CCCCOCC(C)OCC(C)OCC(C)=O (stereo not drawn) [TPnB Ketone, 1-((1-((1-Butoxy-2-propanyl)oxy)-2-propanyl)oxy)-2-propanone] | 16.3 | 22.5 | 22.1 | 13.0 | 49.7 | 37.0 | 10.8 |  |  |  |  |  |  | 
5 | O=C1CCCCC1 [Cyclohexanone] |  |  |  |  | 62.4 | 65.2 |  |  |  | <40 | <50 | <50 | Sol. at 50 wt % | <50
6 | CCCCOCC(C)=O [PnB Ketone, 1-Butoxy-2-propanone] | 20.2 | 26.8 | 32.8 | 43.3 | 54.0 | 53.4 | 25.1 | 0.20 | 0.005 |  |  |  |  | 
7 | CCCCCCCCOCC(=O)CC [BnO Ketone, 1-Octyloxy-2-butanone] | 10.2 | 15.3 | 10.0 | 33.9 | 36.5 | 41.6 | 12.0 |  |  |  |  |  |  | 
8 | CCCCCCCCOCC(C)=O [PnO Ketone, 1-Octyloxy-2-propanone] | 12.6 | 17.1 | 15.9 | 35.4 | 40.6 | 42.9 | 12.5 |  |  |  |  |  |  | 
9 | CC(=O)c1ccccc1 [Acetophenone] |  |  |  |  | 49.8 | 55.4 |  |  |  | <30 | <30 | <30 | <50 wt % | <30
10 | CCCCCCOCC(=O)CC [BnH Ketone, 1-Hexyloxy-2-butanone] | 12.8 | 17.5 | 13.6 | 37.3 | 42.5 | 46.2 | 13.5 | 0.22 | 0.02 |  |  |  |  | 
11 | CCCCCOCC(C)OCC(C)=O (stereo not drawn) [DPnPent Ketone, 1-((1-(Pentyloxy)-2-propanyl)oxy)-2-propanone] | 15.0 | 22.0 | 24.4 | 31.8 | 48.7 | 41.8 | 12.0 |  |  |  |  |  |  | 
12 | CCCCOCC(C)OCC(C)=O (stereo not drawn) [DPnB Ketone, 1-((1-(Butoxy)-2-propanyl)oxy)-2-propanone] | 18.3 | 23.7 | 25.5 | 33.4 | 52.7 | 45.4 | 15.0 | 0.20 | 0.03 |  |  |  |  | 
13 | CCCCCCOCC(C)OCC(C)=O (stereo not drawn) [DPnH Ketone, 1-((1-(Hexyloxy)-2-propanyl)oxy)-2-propanone] | 16.4 | 22.1 | 25.3 | 35.5 | 48.4 | 39.0 | 12.5 | 0.22 | 0.03 |  |  |  |  | 
14 | CCCCCCOCC(CC)OCC(=O)CC (stereo not drawn) [DBnH Ketone, 1-((1-(Hexyloxy)-2-butanyl)oxy)-2-butanone] | 10.9 | 17.2 | 10.5 | 33.8 | 42.5 | 39.8 | 11.2 |  |  |  |  |  |  | 
